IC50 data for one compound are collected here from BindingDB's records for PubMed 31434879 (University of California Irvine (UCI)).

Test [1] can be described thus: Inhibition of FLT3 (unknown origin) expressed in mouse BaF3 cells assessed as inhibition of FLT3 ligand-FLT3 dependent cell proliferation incubated for 3 days by ATPlite 1step Luminescence Assay reagent based assay.
Test [2] is described as follows: Inhibition of FLT3-ITD (unknown origin) expressed in mouse BaF3 cells assessed as inhibition of FLT3-ITD dependent cell proliferation incubated for 3 days by ATPlite 1step Luminescence Assay reagent based assay. (In ATP-based viability assays light output follows the ATP content of the culture.)

For `COc1ncc(F)cc1CNc1ccc(Cc2c[nH]c3ncc(C)cc23)c(F)n1` [US9096593, P-2049], the IC50 in test [1] and in test [2] was greater than 10 µM in each case.

As a reminder, the IC50 is the midpoint of a concentration-inhibition curve.
